Reference: patent US20260092054A1, “FUSED RING COMPOUND AND PHARMACEUTICAL CONTAINING SAME” (KAKEN PHARMACEUTICAL CO., LTD., priority 2022, published 2026)
pIC50: −log10 of the molar value.

Columns and labels:
human STAT6 = assay: Human STAT6 dependent reporter activity (IL-4 stimulated STAT6 reporter assay using STAT6-HEK293 cells); type: cell-based; settings: Homo sapiens, IL-4 stimulation, luciferase activity, read-out: Inhibition rate (%); for inhibition at 0.1 µM: compound 0.1 μmol/L; for inhibition at 1 µM: compound 1 μmol/L
human STAT6/pIL-4Rα = molecular target: T1, human STAT6/pIL-4Rα (Homo sapiens, UniProt P42226); assay: Binding inhibitory activity between human STAT6/pIL-4Rα by fluorescence polarization method; settings: rhSTAT6 (123-658) / FAM-pIL-4Rα peptide
T1 construct: histidine tag
T1 sequence (P42226 123-658): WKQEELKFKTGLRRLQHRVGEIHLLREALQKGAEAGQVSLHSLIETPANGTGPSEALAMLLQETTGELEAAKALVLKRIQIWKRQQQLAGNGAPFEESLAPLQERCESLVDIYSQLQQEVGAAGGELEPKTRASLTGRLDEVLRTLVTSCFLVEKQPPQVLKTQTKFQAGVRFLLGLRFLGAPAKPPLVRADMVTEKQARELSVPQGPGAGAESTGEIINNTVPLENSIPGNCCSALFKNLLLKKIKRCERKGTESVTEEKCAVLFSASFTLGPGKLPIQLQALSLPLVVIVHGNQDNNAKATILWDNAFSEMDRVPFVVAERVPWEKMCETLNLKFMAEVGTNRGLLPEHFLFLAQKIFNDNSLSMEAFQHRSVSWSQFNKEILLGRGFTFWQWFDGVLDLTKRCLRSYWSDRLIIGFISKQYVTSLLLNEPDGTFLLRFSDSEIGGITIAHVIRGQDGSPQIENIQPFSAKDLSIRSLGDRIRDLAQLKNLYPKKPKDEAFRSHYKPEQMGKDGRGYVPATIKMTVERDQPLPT
In short: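 His-tagged human STAT6 (residues 123–658, E. coli-expressed) was preincubated with compound for 30 min at RT in the dark, in buffer e.g. 50 mM NaCl, 10 mM HEPES pH 7.0, 1 mM DTT, 1 mM EDTA, 0.01% NP-40. FAM-pIL-4Rα peptide was then added for 30 min. Fluorescence polarisation was read at 485/535 nm, with IC50 interpolated linearly between two points flanking 50%.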

Compound | inhibition at 0.1 µM (human STAT6) | pIC50 (human STAT6/pIL-4Rα) | inhibition at 1 µM (human STAT6)
CCn1c(-c2ccc(-n3c(C)nn(C)c3=O)cc2)cc2ccnc(C(=O)Nc3cccc(C(=O)Nc4ccn(C)n4)c3)c21 [Ex. 201] | 99% | 6.51 | 
COCCn1c(-c2ccc(-n3c(C)nn(C)c3=O)cc2)cc2ccnc(C(=O)Nc3cccc(C(=O)Nc4cc(Cl)n(C)n4)c3)c21 [Ex. 202] | 95% | 6.47 | 
CCn1c(-c2ccc(-n3c(C)nn(C)c3=O)cc2)cc2cncc(C(=O)Nc3ccc(F)c(C(N)=O)c3)c21 [Ex. 216] | 7% | 6.37 | 42%
CCn1c(-c2ccc(N3C(=O)C(C)CC3C)cc2)nc2cc(C(F)(F)F)cc(C(=O)Nc3cccc(C(N)=O)c3F)c21 (stereo not shown) [Ex. 218] | 38% | 6.17 | 89%
